Measurements reported in EP0092073A1, “Magnesium salt of chenodeoxycholic acid and ursodeoxycholic acid, the process for its preparation, and therapeutic compositions which contain it as active principle” (SCHWARZ ITALIA S.p.A., priority 1982, dated 1983).
Where two headings read alike, the source gives them in different places.

Key:
[1] = Acute lethality and toxicity, oral administration (gastric probe); assay type: in vivo, Mus musculus; set-up: key to Toxic symptomatology Type: NN = no symptomatology; D = depression; conditions: in vivo, po; for mortality at 24 h / mortality at 168 h: oral; for mortality at 24 h: read-out: % mortality at following times after administration 24 h; for mortality at 168 h: read-out: % mortality at following times after administration 7 days; for LD50 at 168 h: probit method, read-out: LD50 (mg/kg with reliability limits) 7 days after treatment
Procedure: (§1) Unless otherwise specified, the research was carried out using: a) Mg-UCD capsules as such; b) the powdered contents of Mg-UCD capsules; CDCA (chenodeoxycholic acid) and UDCA (ursodeoxycholic acid) as pure substance which in all cases was partly dissolved and partly suspended under warm conditions (T = 30°C) in 10% gum arabic mucilage (so as to administer 10-40 ml of liquid per kg orally). In certain cases, namely in the experiments involving parenteral administration, the active principle of Mg-UCD, the chenodeoxycholic acid and ursodeoxycholic acid were dissolved in distilled water of slightly alkaline pH (5-10 ml/kg).
(§2) The generally acute lethality, toxicity and tolerability were determined by oral administration of the Mg-UCD (by gastric probe) in the Mus musculus, rat and dog. Animals of both sexes were used, none of which were pregnant. They were fasted for about 12 hours before treatment (but allowing them free access to water). The investigations were carried out using the Mg-UCD in powder form. Comparative investigations were carried out on the rat and Mus musculus using the active principle by endoperitoneal administration, and chenodeoxycholic acid and ursodeoxycholic acid by oral administration (using a gastric probe). Each dose was administered to 20 rats or Mus musculus (10 male and 10 female) and to eight dogs (4 male and 4 female). The animals were observed attentively during the 7 days following administration, and any lethality, toxic symptoms, disturbances, functional variations determinable with the eye, behaviour etc. were noted.
(§3) The LD50 was determined 7 days after administration using the probit method.

Mus musculus = test: as above; assay type: in vivo; set-up: key to Toxic symptomatology Type: NN = no symptomatology; D = depression; conditions: oral
Procedure: as §1, §2, §3

rat = test: as above; assay type: in vivo; set-up: key to Toxic symptomatology Type: NN = no symptomatology; D = depression; conditions: oral
Procedure: as §1, §2, §3

hampsters [2] = test: Action on the formation of cholesterol calculi in the gall-bladder (cholesterol-enriched diet, 80 days); assay type: in vivo; conditions: female hampsters; for % animals with calculi / % animals with crystals: cholesterol-enriched diet
Procedure: (§4) The investigations were carried out on hampsters (of female sex, but excluding those in a state of pregnancy) having an initial weight of 75-90 g. They were treated for 80 days with oral administration (by gastric probe) of MG-UCD (10-20 mg/kg/day), chenodeoxycholic acid (10-20 mg/kg/day) or ursodeoxycholic acid (10-20 mg/kg/day) (Tables 4 and 5). The animals were maintained for 80 consecutive days on a Nossan feed diet for rats, enriched with cholesterol (2 mg/g of food).
(§5) Each experimental group consisted of 10 units. After 80 days, the animals were narcotised with ethyl ether, and the bile was withdrawn, together with the calculi and crystals from the gall-bladder as described by Pearlman and coll. in Gastroenterology 77, 634 (1979).

hampsters [3] = test: Bile lipid and bile acid contents of the bile (cholesterol-enriched diet, 80 days); assay type: in vivo
Procedure: as §4, §5
The bile acid, phospholipid, cholesterol, cholic acid, chenodeoxycholic acid, ursodeoxycholic acid, DCA (deoxycholic acid) and LCA (lithocholic acid) contents were evaluated in the bile by the methods described by Pearlman and coll. (see above).

patients = test: Controlled study in comparison with the free acids; tolerability in patients; assay type: in vivo; conditions: patients
[4] = mouse, 2000 mg/kg, M. musculus F, 2000 mg/kg
[5] = mouse, 2000 mg/kg, M. musculus M, 2000 mg/kg
[6] = mouse, 4000 mg/kg, M. musculus F, 4000 mg/kg
[7] = mouse, 4000 mg/kg, M. musculus M, 4000 mg/kg
[8] = mouse, 8000 mg/kg, M. musculus F, 8000 mg/kg
[9] = mouse, 8000 mg/kg, M. musculus M, 8000 mg/kg
[10] = rat, 2000 mg/kg, Rat F, 2000 mg/kg
[11] = rat, 2000 mg/kg, Rat M, 2000 mg/kg
[12] = rat, 4000 mg/kg, Rat F, 4000 mg/kg
[13] = rat, 4000 mg/kg, Rat M, 4000 mg/kg
[14] = rat, 8000 mg/kg, Rat F, 8000 mg/kg
[15] = rat, 8000 mg/kg, Rat M, 8000 mg/kg

For `C[C@H](CCC(=O)O)[C@H]1CC[C@H]2[C@@H]3[C@H](O)C[C@@H]4C[C@H](O)CC[C@]4(C)[C@H]3CC[C@]12C` [Chenodeoxycholic acid, 17β-(1-methyl-3-carboxypropyl)-ethiocholane-3α, 7α-diol], which mortality at 24 h [1, 4] is on record?
Its mortality at 24 h is 0%.

What about the mortality at 168 h [1, 4] of the same compound?
Its mortality at 168 h is 0%.

What about the mortality at 24 h [1, 5] of the same compound?
Its mortality at 24 h is 0%.

And the mortality at 168 h [1, 5]?
The mortality at 168 h was 0%.

And the mortality at 24 h [1, 6]?
Its mortality at 24 h is 30%.

And the mortality at 168 h [1, 6]?
The mortality at 168 h was 30%.

And the mortality at 24 h [1, 7]?
Its mortality at 24 h is 30%.

And the mortality at 168 h [1, 7]?
Its mortality at 168 h is 30%.

What about the mortality at 24 h [1, 8] of the same compound?
The mortality at 24 h was 80%.

What about the mortality at 168 h [1, 8] of the same compound?
Its mortality at 168 h is 80%.

What about the mortality at 24 h [1, 9] of the same compound?
Its mortality at 24 h is 80%.

What about the mortality at 168 h [1, 9] of the same compound?
Its mortality at 168 h is 80%.

And the LD50 at 168 h ([1]; mouse, M. musculus F)?
The LD50 at 168 h was 5280 mg/kg.

And the LD50 at 168 h ([1]; mouse, M. musculus M)?
The LD50 at 168 h was 5280 mg/kg.

And the mortality at 24 h [1, 10]?
The mortality at 24 h was 0%.

And the mortality at 168 h [1, 10]?
Its mortality at 168 h is 0%.

And the mortality at 24 h [1, 11]?
Its mortality at 24 h is 0%.

What about the mortality at 168 h [1, 11] of the same compound?
Its mortality at 168 h is 0%.

And the mortality at 24 h [1, 12]?
The mortality at 24 h was 30%.

What about the mortality at 168 h [1, 12] of the same compound?
Its mortality at 168 h is 30%.

And the mortality at 24 h [1, 13]?
Its mortality at 24 h is 40%.

What about the mortality at 168 h [1, 13] of the same compound?
Its mortality at 168 h is 40%.

What about the mortality at 24 h [1, 14] of the same compound?
Its mortality at 24 h is 90%.

What about the mortality at 168 h [1, 14] of the same compound?
The mortality at 168 h was 90%.

What about the mortality at 24 h [1, 15] of the same compound?
Its mortality at 24 h is 80%.

What about the mortality at 168 h [1, 15] of the same compound?
The mortality at 168 h was 80%.

What about the LD50 at 168 h ([1]; rat, Rat F) of the same compound?
Its LD50 at 168 h is 4890 mg/kg.

What about the LD50 at 168 h ([1]; rat, Rat M) of the same compound?
The LD50 at 168 h was 4010 mg/kg.

And the “Toxic symptomatology Latency” value (Mus musculus; M. musculus F, 2000 mg/kg)?
The value was 5-10 min.

And the “Toxic symptomatology Type” value (Mus musculus; M. musculus F, 2000 mg/kg)?
The value was “D”.

What about the “Toxic symptomatology Latency” value (Mus musculus; M. musculus F, 4000 mg/kg) of the same compound?
Its value is 5-10 min.

What about the “Toxic symptomatology Type” value (Mus musculus; M. musculus F, 4000 mg/kg) of the same compound?
Its value is “D”.

What about the “Toxic symptomatology Latency” value (Mus musculus; M. musculus F, 8000 mg/kg) of the same compound?
The value was 5-10 min.

What about the “Toxic symptomatology Type” value (Mus musculus; M. musculus F, 8000 mg/kg) of the same compound?
Its value is “D”.

And the “Toxic symptomatology Latency” value (Mus musculus; M. musculus M, 2000 mg/kg)?
The value was 5-10 min.

And the “Toxic symptomatology Type” value (Mus musculus; M. musculus M, 2000 mg/kg)?
The value was “D”.

What about the “Toxic symptomatology Latency” value (Mus musculus; M. musculus M, 4000 mg/kg) of the same compound?
Its value is 5-10 min.

What about the “Toxic symptomatology Type” value (Mus musculus; M. musculus M, 4000 mg/kg) of the same compound?
Its value is “D”.

And the “Toxic symptomatology Latency” value (Mus musculus; M. musculus M, 8000 mg/kg)?
The value was 5-10 min.

What about the “Toxic symptomatology Type” value (Mus musculus; M. musculus M, 8000 mg/kg) of the same compound?
Its value is “D”.

What about the “Toxic symptomatology Latency” value (rat; Rat F, 2000 mg/kg) of the same compound?
The value was 5-10 min.

What about the “Toxic symptomatology Type” value (rat; Rat F, 2000 mg/kg) of the same compound?
The value was “D”.

And the “Toxic symptomatology Latency” value (rat; Rat F, 4000 mg/kg)?
The value was 5-10 min.

What about the “Toxic symptomatology Type” value (rat; Rat F, 4000 mg/kg) of the same compound?
Its value is “D”.

What about the “Toxic symptomatology Latency” value (rat; Rat F, 8000 mg/kg) of the same compound?
The value was 5-10 min.

And the “Toxic symptomatology Type” value (rat; Rat F, 8000 mg/kg)?
Its value is “D”.

What about the “Toxic symptomatology Latency” value (rat; Rat M, 2000 mg/kg) of the same compound?
The value was 5-10 min.

And the “Toxic symptomatology Type” value (rat; Rat M, 2000 mg/kg)?
The value was “D”.

What about the “Toxic symptomatology Latency” value (rat; Rat M, 4000 mg/kg) of the same compound?
Its value is 5-10 min.

And the “Toxic symptomatology Type” value (rat; Rat M, 4000 mg/kg)?
Its value is “D”.

What about the “Toxic symptomatology Latency” value (rat; Rat M, 8000 mg/kg) of the same compound?
Its value is 5-10 min.

And the “Toxic symptomatology Type” value (rat; Rat M, 8000 mg/kg)?
The value was “D”.

And the “% animals with calculi” value (hampsters [2]; 10 mg/kg/day oral for 80 days)?
Its value is 50%.

What about the “% animals with crystals” value (hampsters [2]; 10 mg/kg/day oral for 80 days) of the same compound?
Its value is 30%.

And the “% animals with calculi” value (hampsters [2]; 20 mg/kg/day oral for 80 days)?
The value was 0%.

What about the “% animals with crystals” value (hampsters [2]; 20 mg/kg/day oral for 80 days) of the same compound?
The value was 0%.

What about the “Body weight (g ± s.e.) after following days 80” value (hampsters [2]; day 80, oral, 10 mg/kg/day) of the same compound?
The value was 148 ± 9 g.

And the “Bile acids (expressed as molar % ± s.e.) Cheno-deoxycholic acid” value (hampsters [3]; 10 mg/kg/day oral for 80 days)?
Its value is 42.1 ± 3.6 molar %.

What about the “Bile acids (expressed as molar % ± s.e.) Cholic acid” value (hampsters [3]; 10 mg/kg/day oral for 80 days) of the same compound?
The value was 29.6 ± 2.6 molar %.

What about the “Bile acids (expressed as molar % ± s.e.) DCA” value (hampsters [3]; 10 mg/kg/day oral for 80 days) of the same compound?
The value was 12.7 ± 0.6 molar %.

And the “Bile acids (expressed as molar % ± s.e.) LCA” value (hampsters [3]; 10 mg/kg/day oral for 80 days)?
The value was 3.2 ± 0.1 molar %.

And the “Bile acids (expressed as molar % ± s.e.) Urso-deoxycholic acid” value (hampsters [3]; 10 mg/kg/day oral for 80 days)?
The value was 6.6 ± 0.4 molar %.

What about the “Bile lipids (expressed as molar % ± s.e.) Bile acids” value (hampsters [3]; 10 mg/kg/day oral for 80 days) of the same compound?
Its value is 79.5 ± 5.6 molar %.

And the “Bile lipids (expressed as molar % ± s.e.) Cholesterol” value (hampsters [3]; 10 mg/kg/day oral for 80 days)?
The value was 7.2 ± 0.2 molar %.

And the “Bile lipids (expressed as molar % ± s.e.) Phospho-lipids” value (hampsters [3]; 10 mg/kg/day oral for 80 days)?
Its value is 16.0 ± 1.8 molar %.

What about the “Bile acids (expressed as molar % ± s.e.) Cheno-deoxycholic acid” value (hampsters [3]; 20 mg/kg/day oral for 80 days) of the same compound?
Its value is 66.0 ± 4.7 molar %.

And the “Bile acids (expressed as molar % ± s.e.) Cholic acid” value (hampsters [3]; 20 mg/kg/day oral for 80 days)?
The value was 18.7 ± 2.1 molar %.

What about the “Bile acids (expressed as molar % ± s.e.) DCA” value (hampsters [3]; 20 mg/kg/day oral for 80 days) of the same compound?
Its value is 10.4 ± 0.2 molar %.

What about the “Bile acids (expressed as molar % ± s.e.) LCA” value (hampsters [3]; 20 mg/kg/day oral for 80 days) of the same compound?
Its value is 3.4 ± 0.3 molar %.

What about the “Bile acids (expressed as molar % ± s.e.) Urso-deoxycholic acid” value (hampsters [3]; 20 mg/kg/day oral for 80 days) of the same compound?
Its value is 7.8 ± 0.3 molar %.

What about the “Bile lipids (expressed as molar % ± s.e.) Bile acids” value (hampsters [3]; 20 mg/kg/day oral for 80 days) of the same compound?
Its value is 80.2 ± 3.8 molar %.

What about the “Bile lipids (expressed as molar % ± s.e.) Cholesterol” value (hampsters [3]; 20 mg/kg/day oral for 80 days) of the same compound?
Its value is 5.9 ± 0.3 molar %.

And the “Bile lipids (expressed as molar % ± s.e.) Phospho-lipids” value (hampsters [3]; 20 mg/kg/day oral for 80 days)?
The value was 15.8 ± 1.3 molar %.

And the side effects (patients)?
Its side effects is “diarrhoea, and, in certain cases, transaminase increase”.
